Data on ten compounds can be found in patent US10597649B2, “Tau protease compositions and methods of use” (Oligomerix, Inc., priority 2011, dated 2020).

For one assay, the system named is Aβ. The following applies: clinical endpoint in Phase III; cited from earlier work.
Assay [1] deals with T1, Tau 4R2N (Homo sapiens, UniProt P10636).
T1 construct: Stabilization buffer enables production of full length monomer, dimer and trimer for tau protease; made in house; host or cells: E. coli BL21 (DE3) Gold
Briefly: NEM treatment of tau 4R2N monomer, incubation at 37° C., non-reducing SDS-PAGE. It is filed as biochemical. The following applies: 1 mM NEM for 2 hr. The procedure: FIG. 2 illustrates the formation of disulfide mediated tau oligomers preceded truncation and higher order aggregate formation. Tau 4R2N oligomers were purified by continuous-elution electrophoresis and monomer was further purified by pooling and buffer exchanging using spin columns with a molecular weight cut-off of 7000 Da into 25 mM Tris-HCl pH 7.4. A small amount of the monomer was treated with freshly-prepared NEM at a final concentration of 1 mM for 2 hr at ambient temperature. For incubations, monomer treated and untreated with NEM was allowed to incubate at 37° C. over the weekend (approximately 50 hrs), followed by separation on 4-20% sodium dodecyl sulfate (SDS)-polyacrylamide gel electrophoresis (PAGE) (SDS-PAGE) Tris-HCl gel (Bio-Rad Catalogue #345-0033 Hercules, Calif., USA) without reductant. Tau 4R2N—Disulfide-mediated oligomer formation preceded truncation, and truncation preceded higher-order aggregation. Aggregate formation was time dependent.

Assay [2] addresses T2, tau 4R2N trimer (Homo sapiens, UniProt P10636).
T2 construct: Stabilization buffer enables production of full length monomer, dimer and trimer for tau protease; made in house; host or cells: E. coli BL21 (DE3) Gold
Briefly: SDS titration for tau protease stabilization buffer. It is filed as biochemical. The procedure: (§1) Purified recombinant human tau 4R2N was prepared as described in the flow chart. Monomer, dimer and trimer species were purified preparative electrophoresis from a tau 4R2N preparation that had formed oligomers. The electrophoresis buffer contained 0.1% SDS which inhibited the proteolytic activity. Fractions containing the tau species were buffer exchanged into 25 mM Tris-HCl pH 7.4 using and Amicon ultrafiltration device (Merck Millipore, Billerica, Mass.), which led to restoration of tau autoproteolytic activity. Protein concentrations of the preparations were determined using the BCA kit (ThemoFisher Scientific). Samples were run on a pre-cast 4-20% polyacrylamide Tris-HCl gel (BioRad, Hercules, Calif.) without using reductant in order to visualize the disulfide mediated oligomers. The gel was stained with GelCodeBlue Safe (ThermoFisher Scientific, Rockford, Ill.). Lane 1: 5.2 μg of tau 4R2N oligomer standard; Lane 2: 2 microliter of monomer fraction before buffer exchange; Lane 3: 0.5 μg monomer after buffer exchange; Lane 4: […] of dimer fraction before buffer exchange; Lane 5: 0.5 μg dimer after buffer exchange; Lane 6: 20 μL trimer fraction before buffer exchange; Lane 7: 0.5 μg trimer after buffer exchange.
This example describes the development and characterization of a stabilization buffer for preserving the activity of tau protease. […]

Assay [3] concerns the target T1, Tau 4R2N. Briefly: Autoproteolytic activity of purified tau monomer, dimer and trimer (SDS-PAGE). The following applies: for degradation in contamination control study (Example 3): 0.35 μg, overnight at 37° C., equal sample volumes from purification; for autoproteolytic activity (Example 1): after buffer exchange into 25 mM Tris-HCl pH 7.4, incubation at 37° C. Type of assay: biochemical. As for the experimental part:
This example describes the identification of the autoproteolytic activity of tau oligomers.
as §1
Tau 4R2N undergoes autoproteolytic cleavage (self-cleavage) when it forms disulfide-mediated oligomers upon incubation. Tau autoproteolyic activity co-purified with the dimer and trimer species. The amount of autoproteolytic activity was greatest with trimer which fragmented to the extent where no full size trimer remained after incubation. […] It was also shown that Tau autoproteolytic activity co-purified with dimer and trimer species. […] Full-length trimer digested completely into smaller fragments, and upon incubation, monomer formed an oligomeric ladder that produced a low level of autoproteolytic activity.
(§2) Monomer, Dimer, and Trimer of Tau 441 were purified under non-reducing conditions using continuous-elution electrophoresis. Fractions of each oligomer sample were pooled and buffer exchanged into stabilization buffer using an Amicon spin concentrator with a molecular weight cut-off of 30,000 daltons. 0.35 μg of each sample was incubated overnight at 37° C. while non-incubated control was kept on ice at 4° C. Next day, 2×SDS sample buffer without reductant was added to each sample and loaded onto a 4-20% gradient Tris-HCl Criterion Gel (Bio-Rad, Hercules, Calif.).
as §2, with “This example presents results from a contamination control study of tau protease. Monomer,” for “Monomer,”, “2× sodium dodecyl sulfate” for “2×SDS”
Lane 1—tau oligomer ladder standard; Lane 2—empty; Lane 3—purified monomer no incubation (fraction from purification plate); Lane 4—purified monomer without incubation; Lane 5—purified monomer with incubation; Lane 6—purified dimer without incubation; Lane 7—purified dimer with incubation; Lane 8—purified trimer without incubation; purified trimer with incubation overnight at 37° C. Lanes 3-9 were treated with sample buffer containing β-mercaptoethanol (BME).

For the next assay, the target named is T3, Tau 4R2n 241-340 (TP-99) (Homo sapiens, UniProt P10636).
T3 construct: initiating methionine (N); made in house; host or cells: E. coli BL21 (DE3) Gold
Briefly: TP-99 peptide digest HPLC assay with added zinc chloride. Type of assay: biochemical. The following applies: 100 μM zinc chloride, 44 hr at 37° C. The procedure:
As in FIG. 7, cleavage of the peptide substrate for tau protease Tau 4R2N (amino acids 335-353) was used to monitor activity using reverse-phase HPLC. […] The large peak in the lower trace indicates intact peptide which is greatly diminished in the upper trace and replaced with two smaller peaks F1 and F2 that represent fragments generated by TP-99. […] The asterisk indicates an artifact peak that is derived from the incubation tube. Ten microgram of Tau peptide 335-353 (OP-001) was incubated without TP-99, with 25 μL, TP-99 oligomer ladder, or with additional 100 μM zinc chloride, 44 hr at 37° C. in 30 μL buffer (25 mM Tris-HCl pH 7.4). Samples were analyzed by reverse phase HPLC (SystemGold® 32Karat™ LC-CE System, Beckman Coulter, Inc., (Indianapolis, Ind.)) using a linear gradient of acetonitrile in 0.1% TFA 0-60% acetonitrile on an analytical C18 column (12.5 cm×2.1 mm, 5 μm, (Supelco);

The target of the next assay is T4, tau 4R2N trimer protease (Homo sapiens, UniProt P10636).
T4 construct: Stabilization buffer enables production of full length monomer, dimer and trimer for tau protease; made in house; host or cells: E. coli BL21 (DE3) Gold
Description: Peptide assay (tau peptide 335-353, reverse-phase HPLC) used to screen serine protease inhibitors. The following applies: 1 hr at room temperature before peptide substrate. The arrangement: inhibition of cleavage of the peptide (FIG. 14D) / inhibition of cleavage of the peptide (FIG. 14F): dose or concentration left out as unconfirmed. It is filed as biochemical. An excerpt:
N-terminal sequencing of fragments using mass spectrometry identified autoproteolytic cut sites. In particular, cutting at the Lys340-Ser341 (340KS341) cut site occurred readily. Therefore, a 19-amino acid peptide corresponding to amino acids 335G to 353L of tau protein was synthesized that contained the KS cut site (340KS341). The reaction was monitored by reverse-phase high-pressure liquid chromatography (HPLC). […] An asterisk marks a non-specific contaminant that was used as a marker. […] 10 μg of tau peptide 335-353 ([…]) (SEQ ID NO:19) was custom synthesized by Genscript (Piscataway, N.J., USA) and 1 mg was dissolved in 1 mL of buffer (25 mM Tris-HCl pH 7.4). […] of peptide was incubated with 11 μg of tau trimer protease in 30 μL buffer 20 hr at 37° C. and analyzed by HPLC [SystemGold® 32Karat™ LC-CE System, Beckman Coulter, Inc., (Indianapolis, Ind.)] using a linear gradient of acetonitrile in 0.1% TFA 0-60% acetonitrile on an analytical C18 column (12.5 cm×2.1 mm, 5 μm, (Supelco, Bellefonte, Pa., USA). 30 μg of peptide was incubated without tau protease as a negative control and analyzed with the same method;
The peptide assay for tau 4R2N trimer activity described in FIG. 5 was used to screen a series of serine protease inhibitors. 1 mM AEBSF was incubated with tau 4R2N trimer for 1 hr at room temperature before addition of the peptide substrate. […] The asterisk indicates an artifactual peak unrelated to the peptide;

The target in assay [4] is T2, tau 4R2N trimer. Briefly: Tau 4R2N trimer incubated overnight with protease inhibitors, fragmentation read by SDS-PAGE. The following applies: overnight at 37° C., inhibitors at low and high concentrations; chymostatin 10 and 100 μM. Type of assay: biochemical.
Description: Tau 4R2N trimer was incubated overnight at 37° C. with and without serine-specific protease inhibitors (Sigma Aldrich, St. Louis, Mo.). The incubation volumes were 3.45 microliter at a final concentration of 0.145 mg/mL tau 4R2N trimer.
Tau 4R2N trimer was incubated overnight at 37° C. with and without serine-specific protease inhibitors at low and high concentrations.
Tau trimer protease was incubated with and without protease inhibitor cocktail overnight containing serine protease, amino-peptidase, cysteine protease and aspatic protease inhibitors.
For each sample, 0.45 μg of tau 4R2N trimer was incubated at 0.2 mg/mL overnight at 37° C. in the presence of various freshly prepared protease inhibitors. Non-incubated control was kept on ice overnight at 4° C. Next day, 2× sodium dodecyl sulfate sample buffer with reductant was added to each sample and loaded onto a 4-20% gradient Tris-HCl Criterion Gel (Bio-Rad).
Protease inhibitors targeted include serine proteases, amino-peptidases, cysteine proteases, metallo-proteases, and aspartic proteases.

T2 sequence (P10636 1-441 isoform P10636-8): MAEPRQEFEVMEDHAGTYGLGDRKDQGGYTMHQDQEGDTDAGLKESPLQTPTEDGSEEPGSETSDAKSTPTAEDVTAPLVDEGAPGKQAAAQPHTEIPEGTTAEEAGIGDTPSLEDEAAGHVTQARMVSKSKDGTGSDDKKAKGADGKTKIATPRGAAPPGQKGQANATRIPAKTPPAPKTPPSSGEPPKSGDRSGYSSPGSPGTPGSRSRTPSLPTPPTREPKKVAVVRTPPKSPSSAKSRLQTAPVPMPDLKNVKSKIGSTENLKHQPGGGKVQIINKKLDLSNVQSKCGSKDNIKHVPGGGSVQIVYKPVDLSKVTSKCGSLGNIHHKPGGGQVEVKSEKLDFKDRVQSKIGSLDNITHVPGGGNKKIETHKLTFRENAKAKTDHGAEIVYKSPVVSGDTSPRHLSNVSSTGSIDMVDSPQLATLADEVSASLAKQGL
T1 sequence (P10636 1-441 isoform P10636-8): as above
T4 sequence (P10636 1-441 isoform P10636-8): as above
T3 sequence (P10636 with tags, fused parts or gaps): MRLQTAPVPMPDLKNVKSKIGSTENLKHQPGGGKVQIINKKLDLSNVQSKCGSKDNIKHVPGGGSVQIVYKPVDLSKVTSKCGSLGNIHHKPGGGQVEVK

With `NCCCS(=O)(=O)O` [Tramiprosate], the Status result in the assay with Aβ was “Failed to meet”. `CC(C)[C@H](O)C(=O)N[C@@H](C)C(=O)N[C@@H]1C(=O)N(C)CCc2ccccc21` [Semagacestat]: the Status entry with Aβ is “Failed to meet”. In the case of `CCN1C(=O)C=CC1=O` [NEM, N-ethylmaleimide], at Tau 4R2N [1] (then about 50 hrs at 37° C.), the disulfide-mediated oligomer formation result is given as “irreversibly inhibited”. On Tau 4R2N [1] (then incubation at 37° C.), the autoproteolytic activity result is reported as “loss of autoproteolytic activity” and the “higher order aggregate formation” value was “inhibition of higher order aggregate formation”. Consider `CCCCCCCCCCCCOS(=O)(=O)[O-].[Na+]` [SDS, sodium dodecyl sulfate], for which, on tau 4R2N trimer [2] (0.3 μg tau 4R2N trimer, overnight at 37° C., 50 mM TrisHCl pH 7.4), the “minimal inhibitory concentration for the enzymatic activity” value came out at 0.002%. Moreover, the “proteolytic activity in electrophoresis buffer” value on tau 4R2N trimer [2] (0.1% SDS) was “inhibited”.

In the case of “tau 4R2N monomer: purified monomer species of recombinant human tau 4R2N”, in the assay with Tau 4R2N [3], the “degradation in contamination control study (Example 3)” value is recorded as “minimal cleavage” and the “autoproteolytic activity (Example 1)” value is listed as “minor activity”. For the compound `[Cl-].[Cl-].[Zn+2]` [zinc chloride], the “activity of TP-99 on tau peptide 335-353” value on Tau 4R2n 241-340 (TP-99) is “increased the activity”.

As for `CC(C)C[C@H](NC(=O)[C@@H](NC(=O)N[C@@H](Cc1ccccc1)C(=O)O)[C@@H]1CCN=C(N)N1)C(=O)N[C@H](C=O)Cc1ccccc1` [Chymostatin], at tau 4R2N trimer protease (chymostatin), the “inhibition of cleavage of the peptide (FIG. 14D)” value is reported as “strongly inhibited”. At tau 4R2N trimer [4], the “inhibitory effect on tau 4R2N trimer, serine protease inhibitor panel (FIG. 12)” value is listed as “greatest inhibitory effect”.

In the case of “tau 4R2N dimer: purified disulfide-mediated dimer species of recombinant human tau 4R2N”, in the assay with Tau 4R2N [3], the “degradation in contamination control study (Example 3)” value is reported as “minimal cleavage” and the “autoproteolytic activity (Example 1)” value was “showed autoproteolytic activity”.

Consider gabexate mesylate, for which the “inhibition of cleavage of the peptide (FIG. 14F)” value at tau 4R2N trimer protease (gabexate mesylate) is recorded as “did not significantly inhibit”. `C[C@@H](C(=O)O)c1ccc(-c2ccccc2)c(F)c1` [R-flurbiprofen]: the Status result with Aβ is given as “Failed to meet”.
